Measured values taken from ChEMBL document CHEMBL1201862, “PubChem BioAssay data set” (2004).
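Tested at 5 concentrations; 48 h exposure; 96-well plates; endpoints linearly interpolated, else capped at highest concentration. GI50 marks 50% less growth.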 Calls of active or inactive are those of the source. Cut-off read from the data, not from the text of the source: active = GI50 up to about 1.1 µM and inactive = higher.

Experiments:
Experiment in all cases: NCI-60 cell line screen, 48 h
BT-549 = test system: BT-549
OVCAR-3 = test system: OVCAR-3
NCI-H522 = test system: NCI-H522
SR = test system: SR
HL-60 = test system: HL-60
HCT-116 = test system: HCT-116
RPMI-8226 = test system: RPMI-8226
CAKI-1 = test system: CAKI-1
SNB-19 = test system: SNB-19
SF-539 = test system: SF-539
HCC 2998 = test system: HCC 2998
MDA-N = test system: MDA-N
HOP-92 = test system: HOP-92
MOLT-4 = test system: MOLT-4
Malme-3M = test system: Malme-3M
CCRF-CEM = test system: CCRF-CEM
SF-268 = test system: SF-268
SNB-75 = test system: SNB-75
MDA-MB-231 = test system: MDA-MB-231
K562 = test system: K562
HOP-62 = test system: HOP-62
SK-MEL-5 = test system: SK-MEL-5
UO-31 = test system: UO-31
SN12C = test system: SN12C
786-0 = test system: 786-0
RXF 393 = test system: RXF 393
NCI-H226 = test system: NCI-H226
SF-295 = test system: SF-295
M14 = test system: M14
MCF7 = test system: MCF7
EKVX = test system: EKVX
U-251 = test system: U-251
IGROV-1 = test system: IGROV-1
SW-620 = test system: SW-620
OVCAR-4 = test system: OVCAR-4
TK-10 = test system: TK-10
OVCAR-8 = test system: OVCAR-8
NCI-H460 = test system: NCI-H460
Hs-578T = test system: Hs-578T
UACC-257 = test system: UACC-257
KM12 = test system: KM12
SK-MEL-2 = test system: SK-MEL-2
HT-29 = test system: HT-29
A549 = test system: A549
A498 = test system: A498
UACC-62 = test system: UACC-62
ACHN = test system: ACHN
PC-3 = test system: PC-3
SK-MEL-28 = test system: SK-MEL-28
T47D = test system: T47D
LOX IMVI = test system: LOX IMVI
HCT-15 = test system: HCT-15
SK-OV-3 = test system: SK-OV-3
DU-145 = test system: DU-145
NCI/ADR-RES = test system: NCI/ADR-RES
OVCAR-5 = test system: OVCAR-5
COLO 205 = test system: COLO 205
NCI-H23 = test system: NCI-H23

Measured: GI50

COC(=O)c1ccccc1/C=C1\Cc2c(C)cc(C)cc2C1=O
> 100 µM: HCT-15
inactive: BT-549 > 100 µM | OVCAR-3 > 100 µM | NCI-H522 > 100 µM | SR > 100 µM | HL-60 > 100 µM | HCT-116 > 100 µM | RPMI-8226 > 100 µM | CAKI-1 > 100 µM | SNB-19 > 100 µM | SF-539 > 100 µM | HCC 2998 > 100 µM | MDA-N > 100 µM | HOP-92 > 100 µM | MOLT-4 > 100 µM | Malme-3M > 100 µM | CCRF-CEM > 100 µM | SF-268 > 100 µM | SNB-75 > 100 µM | MDA-MB-231 > 100 µM | K562 > 100 µM | HOP-62 > 100 µM | SK-MEL-5 > 100 µM | UO-31 > 100 µM | SN12C > 100 µM | 786-0 > 100 µM | RXF 393 > 100 µM | NCI-H226 > 100 µM | SF-295 > 100 µM | M14 > 100 µM | MCF7 > 100 µM | EKVX > 100 µM | U-251 > 100 µM | IGROV-1 > 100 µM | SW-620 > 100 µM | OVCAR-4 > 100 µM | TK-10 > 100 µM | OVCAR-8 > 100 µM | NCI-H460 > 100 µM | Hs-578T > 100 µM | UACC-257 > 100 µM | KM12 > 100 µM | SK-MEL-2 > 100 µM | HT-29 > 100 µM | A549 > 100 µM | A498 > 100 µM | UACC-62 > 100 µM | ACHN > 100 µM | PC-3 > 100 µM | SK-MEL-28 > 100 µM | T47D > 100 µM | LOX IMVI > 100 µM

CCN(CCN(CC)C(=O)NC)C(=O)NC
> 100 µM: HCT-15
inactive: SK-OV-3 > 100 µM | BT-549 > 100 µM | NCI-H522 > 100 µM | SR > 100 µM | HL-60 > 100 µM | HCT-116 > 100 µM | RPMI-8226 > 100 µM | SNB-19 > 100 µM | HCC 2998 > 100 µM | MDA-N > 100 µM | HOP-92 > 100 µM | MOLT-4 > 100 µM | Malme-3M > 100 µM | CCRF-CEM > 100 µM | SF-268 > 100 µM | SNB-75 > 100 µM | MDA-MB-231 > 100 µM | K562 > 100 µM | DU-145 > 100 µM | NCI/ADR-RES > 100 µM | HOP-62 > 100 µM | SK-MEL-5 > 100 µM | UO-31 > 100 µM | SN12C > 100 µM | 786-0 > 100 µM | RXF 393 > 100 µM | NCI-H226 > 100 µM | SF-295 > 100 µM | M14 > 100 µM | MCF7 > 100 µM | OVCAR-5 > 100 µM | EKVX > 100 µM | U-251 > 100 µM | IGROV-1 > 100 µM | SW-620 > 100 µM | TK-10 > 100 µM | OVCAR-8 > 100 µM | NCI-H460 > 100 µM | COLO 205 > 100 µM | NCI-H23 > 100 µM | Hs-578T > 100 µM | UACC-257 > 100 µM | SK-MEL-2 > 100 µM | HT-29 > 100 µM | A549 > 100 µM | A498 > 100 µM | UACC-62 > 100 µM | ACHN > 100 µM | PC-3 > 100 µM | SK-MEL-28 > 100 µM | T47D > 100 µM | LOX IMVI > 100 µM
